Laboratory results published in patent US20140356325A1, “NOVEL 2'-C-METHYL NUCLEOSIDE DERIVATIVE COMPOUNDS” (Ligand Pharmaceuticals Incorporated, priority 2012, published 2014).
Structures can show the parent of a compound that is named as a salt.

Assays:
[1] = tested on: HCV replication in human liver tissue; assay: HCV-infected human liver slice assay; format: cell-based
Description: Inhibition of HCV replication in human liver tissue is evaluated using the following assay. Procurement. Liver from a brain-dead HCV antibody-positive human patient is perfused with ice-cold Viaspan (Dupont Pharmaceutical) preservation solution and received on ice in Viaspan. Precision-cut liver slices of ˜200-250 μm thickness and […] are prepared and cultured in Waymouth's cell culture medium (Gibco, Inc.) that is supplemented with 10% fetal bovine serum and 10 mL/L Fungi-Bact at 37° C., and gassed with carbogen (95% O2, 5% CO2) at 0.75 liters/min. Tissue slices are maintained in culture for 72 h. Cell culture medium containing test compound in solution is changed on a daily basis. At appropriate times of liver slice incubation, liver slices and medium are collected for analysis of HCV RNA (tissue and medium) and nucleotide levels (NTP). All collected media and tissue slices are maintained in liquid N2 until analysis. Medium and tissue samples are analyzed for HCV RNA levels according to published procedures (Bonacini et. al., 1999) which utilize an automated, multicycle, polymerase chain reaction (PCR) based technique. This assay has a lower limit of detection for HCV RNA of 100 viral copies/ml.

[2] = tested on: purine salvage pathway enzymes such as adenosine deaminase and purine nucleoside phosphorylase; settings: cited from earlier work

| Compound | melting point | further results |
| --- | --- | --- |
| C[C@@]1(O)[C@H](O)[C@@H](CO)O[C@H]1n1cnc2c(=O)[nH]c(N)nc21 [2′-C-methylguanosine] |  | HCV RNA levels present in the liver slice culture media ([1]; relative to control, untreated slices, following incubation): decreased; amount of HCV RNA released into the culture medium ([1]; treatment for 72 h, medium from 48-72 h): decreases |
| CC(C)[C@H](N)C(=O)O[C@@H]1[C@@H](CO[P@@]2(=O)OCC[C@@H](c3cccc(Cl)c3)O2)O[C@@H](n2cnc3c(O)nc(N)nc32)[C@]1(C)O (as salt: trifluoroacetate) [Compound 118, 2(R)-(2-Amino-6-hydroxy-9 (H)-purinyl)-5(R)-(4(S)-(3-chlorophenyl)-2-oxo-1,3,2-dioxaphosphorinan-2(R)-yloxymethyl)-3(R)-hydroxy-3(R)-methyl-4(R)-L-valinyl-tetrahydrofuran] | > 210 °C |  |
| CC(C)C(=O)O[C@@H]1[C@@H](CO[P@@]2(=O)OCC[C@@H](c3cccc(Cl)c3)O2)O[C@@H](n2cnc3c(O)nc(N)nc32)[C@]1(C)O [Compound 117, 2(R)-(2-Amino-6-hydroxy-9(H)-purinyl)-5(R)-(4(S)-(3-chlorophenyl)-2-oxo-1,3,2-dioxaphosphorinan-2(R)-yloxymethyl)-3(R)-hydroxy-3(R)-methyl-4(R)-(2-methyl-1-oxopropoxy)-tetrahydrofuran] | > 200 °C |  |
| CC(C)COc1nc(N)nc2c1ncn2[C@@H]1O[C@H](CO[P@@]2(=O)OCC[C@@H](c3cccc(Cl)c3)O2)[C@H]2OC(=O)O[C@]21C [Compound 122, 2(R)-(2-Amino-6-(2-methylpropyloxy)-9(H)-purinyl)-4(R)-(4(S)-(3-chlorophenyl)-2-oxo-1,3,2-dioxaphosphorinan-2(R)-yloxymethyl)-1(R)-methyl-7-oxo-3,6,8-trioxa-cis-bicyclo[3.3.0]octane] | 118 to 122 °C |  |
| C[C@@]1(O)[C@H](O)[C@@H](CO)O[C@H]1n1cnc2c(N)ncnc21 [2′-C-methyladenosine] |  | resistance to metabolism by purine salvage pathway enzymes [2]: increased resistance to metabolism |
| C[C@@]12OC(=O)O[C@@H]1[C@@H](CO[P@@]1(=O)OCC[C@@H](c3cccc(Cl)c3)O1)O[C@H]2n1cnc2c(OCC3CC4CCC3C4)nc(N)nc21 (stereo partly drawn) [Compound 139, 2(R)-(2-Amino-6-(2-bicyclo[2.2.1]heptanylmethoxy)-9(H)-purinyl)-4(R)-(4(S)-(3-chlorophenyl)-2-oxo-1,3,2-dioxaphosphorinan-2(R)-yloxymethyl)-1(R)-methyl-7-oxo-3,6,8-trioxa-cis-bicyclo[3.3.0]octane] | 99 to 101 °C |  |
| CCOc1nc(N)nc2c1ncn2[C@@H]1O[C@H](CO[P@@]2(=O)OCC[C@@H](c3cccc(Cl)c3)O2)[C@@H](OC(=O)[C@@H](N)C(C)C)[C@@]1(C)O (as salt: trifluoroacetate) [Compound 184, 2(R)-(2-Amino-6-ethoxy-9(H)-purinyl)-5(R)-(4(S)-(3-chlorophenyl)-2-oxo-1,3,2-dioxaphosphorinan-2(R)-yloxymethyl)-3(R)-hydroxy-3(R)-methyl-4(R)-L-valinyl-tetrahydrofuran] | 128 to 130 °C |  |
| CC1CC1COc1nc(N)nc2c1ncn2[C@@H]1O[C@H](CO[P@@]2(=O)OCC[C@@H](c3cccc(Cl)c3)O2)[C@H]2OC(=O)O[C@]21C (stereo partly drawn) [Compound 135, 2(R)-(2-Amino-6-(2-methylcyclopropylmethoxy)-9(H)-purinyl)-4(R)-(4(S)-(3-chlorophenyl)-2-oxo-1,3,2-dioxaphosphorinan-2(R)-yloxymethyl)-1(R)-methyl-7-oxo-3,6,8-trioxa-cis-bicyclo[3.3.0]octane] | 88 to 90 °C |  |
| C[C@@]12OC(=O)O[C@@H]1[C@@H](CO[P@@]1(=O)OCC[C@@H](c3cccc(Cl)c3)O1)O[C@H]2n1cnc2c(OCCC3CCCCC3)nc(N)nc21 [Compound 131, 2(R)-(2-Amino-6-(2-cyclohexylethoxy)-9(H)-purinyl)-4(R)-(4(S)-(3-chlorophenyl)-2-oxo-1,3,2-dioxaphosphorinan-2(R)-yloxymethyl)-1(R)-methyl-7-oxo-3,6,8-trioxa-cis-bicyclo[3.3.0]octane] | 93 to 95 °C |  |

Continued, in another order:

| melting point | Compound | further results |
| --- | --- | --- |
| 72 to 75 °C | CCC(CC)COc1nc(N)nc2c1ncn2[C@@H]1O[C@H](CO[P@@]2(=O)OCC[C@@H](c3cccc(Cl)c3)O2)[C@H]2OC(=O)O[C@]21C [Compound 143, 2(R)-(2-Amino-6-(2-ethylbutyloxy)-9(H)-purinyl)-4(R)-(4(S)-(3-chlorophenyl)-2-oxo-1,3,2-dioxaphosphorinan-2(R)-yloxymethyl)-1(R)-methyl-7-oxo-3,6,8-trioxa-cis-bicyclo[3.3.0]octane] |  |
| 162 to 165 °C | CCOc1nc(N)nc2c1ncn2[C@@H]1O[C@H](CO[P@@]2(=O)OCC[C@@H](c3cccc(Cl)c3)O2)[C@@H](OC(=O)C(C)C)[C@@]1(C)O (as salt: trifluoroacetate) [Compound 185, 2(R)-(2-Amino-6-ethoxy-9(H)-purinyl)-5(R)-(4(S)-(3-chlorophenyl)-2-oxo-1,3,2-dioxaphosphorinan-2(R)-yloxymethyl)-3(R)-hydroxy-3(R)-methyl-4(R)-isobutyryloxy-tetrahydrofuran] |  |
| 88 to 90 °C | CCOc1nc(N)nc2c1ncn2[C@@H]1O[C@H](CO[P@@]2(=O)OCC[C@@H](c3cccc(F)c3)O2)[C@H]2OC(=O)O[C@]21C [Compound 124, 2(R)-(2-Amino-6-ethoxy-9(H)-purinyl)-4(R)-(4(S)-(3-fluorophenyl)-2-oxo-1,3,2-dioxaphosphorinan-2(R)-yloxymethyl)-1(R)-methyl-7-oxo-3,6,8-trioxa-cis-bicyclo[3.3.0]octane] |  |
| 218 to 220 °C | C[C@@]12OC(=O)O[C@@H]1[C@@H](CO[P@@]1(=O)OCC[C@@H](c3cccc(C#N)c3)O1)O[C@H]2n1cnc2c(O)nc(N)nc21 [Compound 109, 2(R)-(2-Amino-6-hydroxy-9 (H)-purinyl)-4(R)-(4(S)-(3-cyanophenyl)-2-oxo-1,3,2-dioxaphosphorinan-2(R)-yloxymethyl)-1(R)-methyl-7-oxo-3,6,8-trioxa-cis-bicyclo[3.3.0]octane] |  |
| 80 to 82 °C | CCCCCOc1nc(N)nc2c1ncn2[C@@H]1O[C@H](CO[P@@]2(=O)OCC[C@@H](c3cccc(Cl)c3)O2)[C@H]2OC(=O)O[C@]21C [Compound 150, 2(R)-(2-Amino-6-pentyloxy-9(H)-purinyl)-4(R)-(4(S)-(3-chlorophenyl)-2-oxo-1,3,2-dioxaphosphorinan-2(R)-yloxymethyl)-1(R)-methyl-7-oxo-3,6,8-trioxa-cis-bicyclo[3.3.0]octane] |  |
